Assay results as given in US20100260830A1, “Liposomal Formulations of Tocopheryl Amides” (priority 2009, published 2010).
pIC50: −log10 of the molar value. Where two headings read alike, the source gives them in different places.

Columns and labels:
[1] = General toxicity in mice by the Berlin Test; assay type: in vivo; settings: 5 mg/kg in DMSO
Text: The general toxicity of liposomal preparations of αTAM was studied further in mice by the Berlin Test. Untreated mice and mice treated with empty liposomes were used as controls. […] Symptoms including spasms and heavy breathing pointed to neurotoxicity, embolie or anaphylactic reaction. Therefore, we have discontinued experiments that involved the use of non-liposomal formulations of αTAM.

[2] = Injection of αTAM dissolved in DMSO or ethanol (Prior Art I); assay type: in vivo, mice
Text: In earlier work to develop a formulation of αTAM for preclinical study, the compound was first dissolved in DMSO or ethanol as has been characteristic of studies of this kind (Weber et al, 2002, Vitamin E succinate is a potent novel antineoplastic agent with high selectivity and cooperativity with tumor necrosis factor-related apoptosis-inducing ligand (Apo2 ligand) in vivo, Clin Cancer Res 8:863-69; Yu et al, 1999, Induction of apoptosis in human breast cancer cells by tocopherols and tocotrienols, Nutr Cancer 33:26-32).

[3] = system: Jurkat T cells; assay: Mitochondrial membrane potential ΔΨ, flow cytometry with JC-1 probe; assay type: cell-based
Text: FIG. 3 illustrates the effect of selected chromans on mitochondrial membrane potential ΔΨ in vitro. […] Deviations in ΔΨ were estimated by flow cytometry followed by cell staining with the polychromatic JC-1 probe.

[4] = system: Meso-2 cells; assay: IC50 against Meso-2 cells (FIG. 14A); assay type: cell-based; settings: values only in FIG. 14A
Text: In FIG. 14A, esters and amides of the chromanol and N-chroman genera are compared. […] There is a correlation between increased potency and CLogP, where amide lipophilicity is consistently greater than that of the corresponding esters. Other factors of molecular structure also play a role.

[5] = system: mouse melanoma B16F10 cells; assay: Cytotoxic effect on melanoma cells in vitro
Method: (§1) IC50 values were calculated from MTT activity (Bank, U et al, 1991, Measurement of cellular activity by means of the MTT-test. Allerg Immunol 37:119-123).

[6] = system: granulocyte/macrophage colony forming cells (GM-CFC); assay: GM-CFC colony formation in vitro; assay type: cell-based, Balb/c mouse; settings: Balb/c bone marrow GM progenitors
Method: FIGS. 8A and 8B are comparative views illustrating the paradoxical effect of the liposomal formulation on non-specific toxicity, here to granulocyte/macrophage colony forming cells (GM-CFC). […] In the left panel, GM progenitors were isolated from Balb/c mouse bone morrow and treated with αTOS (left) or αTAM (right, black bars) at the concentrations shown, the number of colonies was counted and expressed per individual well. In the right panel, Balb/c mice were injected i.p. with the vehicle (40), empty liposomes (41) liposomal αTOS at 100 mg/kg (42), αTAM at 10 mg/kg (43), or αTAM at 25 mg/kg (44), and GM-CFC colonies in femoral bone marrow counted 48 h later (* denotes statistically significant differences with pb0.05 in comparison to control). […] This surprising result is paradoxical, and points to the importance of the formulation vehicle as a technological advance in achieving clinical trials of these compounds.

[7] = system: non-malignant cells (e.g. lymphocytes and bone marrow progenitors); assay: In vitro models of non-malignant cells; assay type: cell-based
[8] = system: human breast cancer cell line MCF-7; assay: MTT cytotoxicity IC50; assay type: cell-based; settings: calculated from MTT activity
Method: as §1

Cc1c(C)c2c(c(C)c1NC(=O)/C=C\C(=O)O)CCC(C)(CCCC(C)CCCC(C)CCCC(C)C)O2 (stereo not drawn) [αTAM, α-tocopheryl maleamide]
outcome of free compound administered in DMSO [1]: caused rapid death of the animals
outcome of one or two injections in DMSO ([2]; Balb/c, C57B1 or FVB/N c-neu mice): caused death of the animals
toxicity of solution in DMSO (or ethanol) ([2]; non-liposomal solution): extremely toxic
tolerated dose (given in liposomal formulation): 500 μg per 20 g mouse
dose feasible for human use (mouse, in vivo): 1.75 g
safe dose (mouse, in vivo): 25 mg/kg
dissipating mitochondrial inner transmembrane potential [3]: potent in dissipating mitochondrial inner transmembrane potential
cytolytic potency versus the corresponding tocopheryl succinates [4]: markedly increased cytolytic potency
cytotoxic potential (order) [5]: αTAM>αTOM>αTOS>>αTOH
toxicity to GM progenitors in vitro [6]: the compound is toxic in vitro
cytotoxicity to non-malignant cells [7]: cytotoxic to non-malignant cells
pIC50 [8]: 4.88

Cc1c(C)c2c(c(C)c1NC(=O)CCC(=O)O)CCC(C)(CCCC(C)CCCC(C)CCCC(C)C)O2 (stereo not drawn) [αTAS, α-tocopheryl succinamide]
dissipating mitochondrial inner transmembrane potential [3]: potent in dissipating mitochondrial inner transmembrane potential

Cc1c(C)c2c(c(C)c1O)CC[C@@](C)(CCC[C@H](C)CCC[C@H](C)CCCC(C)C)O2 [αTOH]
cytotoxic potential (order) [5]: No toxicity was observed

tocopheryl succinate [αTOS]
cytotoxic potential (order) ([5]; B16F10 in vitro): αTAM>αTOM>αTOS>>αTOH
